Patent publication US5807535A, “Metal complexes of hydroxyaryl containing aminocarboxylic acid chelating agents” (Australian Nuclear Science & Technology Organisation, priority 1992, dated 1998)
Read-outs that look alike come from different tables or passages of the source.

Key:
[1] = Biodistribution of compound No. 6 in mice (Table 6); type: in vivo, Balb/c mice; details: mouse; for tissue uptake at 0.05 h: 3 min
Source text: (§1) A series of derivatives incorporating carboxyl and phenolate donor groups (1-6) were synthesised by literature method and their radiolabelling characteristic and biological behaviour evaluated. Initial work involved an investigation of radiochemical properties of the ^99m Tc complexes of the ligands and their biodistribution in rats and mice (see Tables 1-6 and 8-12).
(§2) A typical method of radiolabelling of the chelator was achieved by dissolving the chelator in a basic solution of saline. The pH was then adjusted to approx. 6 with HCl. Excess stannous chloride was added to the resultant solution followed by one equivalent volume of sodium ^99m TcO4 (10-50 mCi/ml). Final concentration of the chelator was approx. 1 mg/ml. The efficacy of labelling was determined by ITLC-SG. For each product only one main radiochemical species was observed. Each complex was diluted to 15 μCi/100 μl with saline. […] (See FIGS. 1A and 1B).

[2] = Biodistribution of 99mTc complexes in mice; type: in vivo, Balb/c mice
Source text: as §1, §2

[3] = Biodistribution of 67Ga complexes in mice; type: in vivo, balb/c mice
Description: To ligand (50 μL, 10 mg/mL, 0.2 M NaOAc, […]) was added ^67 Ga citrate (18.5 MBq) and the resultant mixture diluted to 1 mL (0.2 M NaOAc, pH 7). The pH was adjusted to 12 with 1 M NaOH (20 μL) and heated at 40° C. for 40 min. The final volume was adjusted (to 5 mL) with saline and sterilised by filtering through a 0.22 μm filter.
Each animal was injected via tail vein with ^67 Ga complex (100 μL, ~3.7×10^5 Bq). Animals were sacrificed at various time intervals (5 animals per time point/6 time points). Data are illustrated in FIG. 26-30 and in Tables 13-17.
Each ^67 Ga-ligand complex has been evaluated in balb/c mice. […] (see FIG. 26-30).

[4] = blood, read-out: biodistribution blood
[5] = bone, read-out: biodistribution bone
[6] = brain, read-out: biodistribution brain
[7] = heart, read-out: biodistribution heart
[8] = kidneys, read-out: biodistribution kidneys
[9] = liver, read-out: biodistribution liver
[10] = lungs, read-out: biodistribution lungs
[11] = muscle, read-out: biodistribution muscle
[12] = pancreas, read-out: biodistribution pancreas
[13] = skin, read-out: biodistribution skin
[14] = spleen, read-out: biodistribution spleen
[15] = stomach, read-out: biodistribution stomach
[16] = tail, read-out: biodistribution tail
[17] = thymus, read-out: biodistribution thymus
[18] = thyroid, read-out: biodistribution thyroid
[19] = total git, read-out: biodistribution tot GIT
[20] = urine, read-out: biodistribution urine

Molecule `Cc1cc(C)c(O)c(NC(=O)CN(CCN(CC(=O)O)CC(=O)Nc2cc(C)cc(C)c2O)CC(=O)O)c1` [Compound 6] has a tissue uptake at 0.05 h [1, 4] of 10.7 %ID/g, a tissue uptake at 5 min [1, 4] of 7.83 %ID/g and a tissue uptake at 0.05 h [1, 5] of 1.91 %ID/g. For the same molecule, the tissue uptake at 5 min [1, 5] was 1.39 %ID/g, the tissue uptake at 0.05 h [1, 6] was 0.74 %ID/g and the tissue uptake at 5 min [1, 6] was 0.35 %ID/g. For the same molecule, the tissue uptake at 0.05 h [1, 7] was 3.84 %ID/g, the tissue uptake at 5 min [1, 7] was 2.8 %ID/g and the tissue uptake at 0.05 h [1, 8] was 24.1 %ID/g. For the same molecule, the tissue uptake at 5 min [1, 8] was 18.4 %ID/g, the tissue uptake at 0.05 h [1, 9] was 6.52 %ID/g and the tissue uptake at 5 min [1, 9] was 9.39 %ID/g. The tissue uptake at 0.05 h [1, 10] was 6.38 %ID/g, the tissue uptake at 5 min [1, 10] was 4.66 %ID/g and the tissue uptake at 0.05 h [1, 11] was 1.81 %ID/g. It also gave a tissue uptake at 5 min [1, 11] of 1.26 %ID/g, a tissue uptake at 0.05 h [1, 12] of 1.86 %ID/g and a tissue uptake at 5 min [1, 12] of 1.41 %ID/g. The tissue uptake at 0.05 h [1, 13] was 3.96 %ID/g, the tissue uptake at 5 min [1, 13] was 3.47 %ID/g and the tissue uptake at 0.05 h [1, 14] was 2.24 %ID/g. It also gave a tissue uptake at 5 min [1, 14] of 1.78 %ID/g, a tissue uptake at 0.05 h [1, 15] of 1.78 %ID/g and a tissue uptake at 5 min [1, 15] of 6.85 %ID/g. It also gave a tissue uptake at 0.05 h [1, 16] of 8.94 %ID/g, a tissue uptake at 5 min [1, 16] of 6.18 %ID/g and a tissue uptake at 0.05 h [1, 17] of 3.67 %ID/g. It also gave a tissue uptake at 5 min [1, 17] of 2.5 %ID/g, a tissue uptake at 0.05 h [1, 18] of 5.76 %ID/g and a tissue uptake at 5 min [1, 18] of 3.73 %ID/g. For the same molecule, the tissue uptake at 0.05 h [1, 19] was 1.03 %ID/g, the tissue uptake at 5 min [1, 19] was 2.12 %ID/g and the tissue uptake at 0.05 h [1, 20] was 1.3 %ID/g. The tissue uptake at 5 min [1, 20] was 0.95 %ID/g, the “biodistribution GIT” value ([2]; 1 min) was 3.58 % Injected dose and the biodistribution bladder ([2]; 1 min) was 0.06 % Injected dose. It also gave a biodistribution blood ([2]; 1 min) of 41.63 % Injected dose, a biodistribution bone ([2]; 1 min) of 7.37 % Injected dose and a biodistribution heart ([2]; 1 min) of 0.46 % Injected dose. For the same molecule, the biodistribution kidney ([2]; 1 min) was 7.57 % Injected dose, the biodistribution liver ([2]; 1 min) was 22.44 % Injected dose and the biodistribution lungs ([2]; 1 min) was 1.71 % Injected dose. For the same molecule, the biodistribution muscle ([2]; 1 min) was 13.95 % Injected dose, the biodistribution skin ([2]; 1 min) was 8.13 % Injected dose and the biodistribution spleen ([2]; 1 min) was 0.2 % Injected dose. The biodistribution stomach ([2]; 1 min) was 0.4 % Injected dose, the biodistribution tail ([2]; 1 min) was 8.46 % Injected dose and the biodistribution urine ([2]; 1 min) was 0.07 % Injected dose. For the same molecule, the “biodistribution GIT” value ([2]; 3 min) was 11.98 % Injected dose, the biodistribution bladder ([2]; 3 min) was 0.08 % Injected dose and the biodistribution blood ([2]; 3 min) was 15.59 % Injected dose. For the same molecule, the biodistribution bone ([2]; 3 min) was 3.5 % Injected dose, the biodistribution heart ([2]; 3 min) was 0.2 % Injected dose and the biodistribution kidney ([2]; 3 min) was 5.68 % Injected dose. The biodistribution liver ([2]; 3 min) was 35.66 % Injected dose, the biodistribution lungs ([2]; 3 min) was 0.65 % Injected dose and the biodistribution muscle ([2]; 3 min) was 7.87 % Injected dose. It also gave a biodistribution skin ([2]; 3 min) of 8.31 % Injected dose, a biodistribution spleen ([2]; 3 min) of 0.09 % Injected dose and a biodistribution stomach ([2]; 3 min) of 0.43 % Injected dose. For the same molecule, the biodistribution tail ([2]; 3 min) was 7.37 % Injected dose, the biodistribution urine ([2]; 3 min) was 0.81 % Injected dose and the “biodistribution GIT” value ([2]; 5 min) was 27.85 % Injected dose. For the same molecule, the biodistribution bladder ([2]; 5 min) was 0.07 % Injected dose, the biodistribution blood ([2]; 5 min) was 10.31 % Injected dose and the biodistribution bone ([2]; 5 min) was 3.86 % Injected dose. The biodistribution heart ([2]; 5 min) was 0.16 % Injected dose, the biodistribution kidney ([2]; 5 min) was 4.53 % Injected dose and the biodistribution liver ([2]; 5 min) was 30.85 % Injected dose. For the same molecule, the biodistribution lungs ([2]; 5 min) was 0.69 % Injected dose, the biodistribution muscle ([2]; 5 min) was 7.24 % Injected dose and the biodistribution skin ([2]; 5 min) was 9.28 % Injected dose. The biodistribution spleen ([2]; 5 min) was 0.14 % Injected dose, the biodistribution stomach ([2]; 5 min) was 5.42 % Injected dose and the biodistribution tail ([2]; 5 min) was 7.64 % Injected dose. For the same molecule, the biodistribution urine ([2]; 5 min) was 0.59 % Injected dose, the “biodistribution GIT” value ([2]; 10 min) was 45.71 % Injected dose and the biodistribution bladder ([2]; 10 min) was 0.23 % Injected dose. It also gave a biodistribution blood ([2]; 10 min) of 6.34 % Injected dose, a biodistribution bone ([2]; 10 min) of 2.76 % Injected dose and a biodistribution heart ([2]; 10 min) of 0.08 % Injected dose. For the same molecule, the biodistribution kidney ([2]; 10 min) was 2.44 % Injected dose, the biodistribution liver ([2]; 10 min) was 16.04 % Injected dose and the biodistribution lungs ([2]; 10 min) was 0.45 % Injected dose. It also gave a biodistribution muscle ([2]; 10 min) of 5.27 % Injected dose, a biodistribution skin ([2]; 10 min) of 5.17 % Injected dose and a biodistribution spleen ([2]; 10 min) of 0.07 % Injected dose. It also gave a biodistribution stomach ([2]; 10 min) of 3.42 % Injected dose, a biodistribution tail ([2]; 10 min) of 4.77 % Injected dose and a biodistribution urine ([2]; 10 min) of 1.231 % Injected dose. The “biodistribution GIT” value ([2]; 30 min) was 51.18 % Injected dose, the biodistribution bladder ([2]; 30 min) was 0.2 % Injected dose and the biodistribution blood ([2]; 30 min) was 9.66 % Injected dose. It also gave a biodistribution bone ([2]; 30 min) of 2.54 % Injected dose, a biodistribution heart ([2]; 30 min) of 0.11 % Injected dose and a biodistribution kidney ([2]; 30 min) of 1.9 % Injected dose. For the same molecule, the biodistribution liver ([2]; 30 min) was 14.05 % Injected dose, the biodistribution lungs ([2]; 30 min) was 0.39 % Injected dose and the biodistribution muscle ([2]; 30 min) was 6.92 % Injected dose. It also gave a biodistribution skin ([2]; 30 min) of 4.23 % Injected dose, a biodistribution spleen ([2]; 30 min) of 0.06 % Injected dose and a biodistribution stomach ([2]; 30 min) of 1.73 % Injected dose. For the same molecule, the biodistribution tail ([2]; 30 min) was 2.41 % Injected dose, the biodistribution urine ([2]; 30 min) was 1.64 % Injected dose and the biodistribution bone ([3]; 1 min) was 4.33 % ID. The biodistribution kidney ([3]; 1 min) was 9.95 % ID, the biodistribution liver ([3]; 1 min) was 26.45 % ID and the biodistribution muscle ([3]; 1 min) was 17.93 % ID. The biodistribution skin ([3]; 1 min) was 13.91 % ID, the biodistribution spleen ([3]; 1 min) was 0.22 % ID and the biodistribution bone ([3]; 3 min) was 2.41 % ID. The biodistribution kidney ([3]; 3 min) was 5.24 % ID, the biodistribution liver ([3]; 3 min) was 34.06 % ID and the biodistribution muscle ([3]; 3 min) was 10.67 % ID. The biodistribution skin ([3]; 3 min) was 12.80 % ID, the biodistribution spleen ([3]; 3 min) was 0.08 % ID and the biodistribution bone ([3]; 5 min) was 1.67 % ID. For the same molecule, the biodistribution kidney ([3]; 5 min) was 3.36 % ID, the biodistribution liver ([3]; 5 min) was 30.21 % ID and the biodistribution muscle ([3]; 5 min) was 6.35 % ID. For the same molecule, the biodistribution skin ([3]; 5 min) was 10.62 % ID, the biodistribution spleen ([3]; 5 min) was 0.04 % ID and the biodistribution bone ([3]; 10 min) was 0.96 % ID. It also gave a biodistribution kidney ([3]; 10 min) of 1.98 % ID, a biodistribution liver ([3]; 10 min) of 18.58 % ID and a biodistribution muscle ([3]; 10 min) of 4.37 % ID. For the same molecule, the biodistribution skin ([3]; 10 min) was 5.76 % ID, the biodistribution spleen ([3]; 10 min) was 0.03 % ID and the biodistribution bone ([3]; 30 min) was 0.34 % ID. It also gave a biodistribution kidney ([3]; 30 min) of 0.79 % ID, a biodistribution liver ([3]; 30 min) of 3.15 % ID and a biodistribution muscle ([3]; 30 min) of 7.73 % ID. It also gave a biodistribution skin ([3]; 30 min) of 0.86 % ID, a biodistribution spleen ([3]; 30 min) of 0.01 % ID and a biodistribution kidney ([3]; 120 min) of 0.06 % ID. For the same molecule, the biodistribution liver ([3]; 120 min) was 1.33 % ID, the biodistribution muscle ([3]; 120 min) was 1.85 % ID and the biodistribution skin ([3]; 120 min) was 0.10 % ID. The biodistribution spleen ([3]; 120 min) was 0.00 % ID.
